Among the data in US11306084B2, “Integrin antagonists” (Saint Louis University, priority 2016, dated 2022) are IC50 values, retold here.

As usually defined, the IC50 is the concentration that inhibits the measured activity by half.

Holding throughout (format): binding
The target in assay [1] is T1, Recombinant human integrin ανβ1 (Homo sapiens, UniProt P05556+P06756).
T1 construct: purchased R&D Systems 6579-AV
Description: Solid Phase Receptor Assay (SPRA) for ανβ1 function. Conditions: plate-bound human fibronectin; read-out: αvβ1 SPRA IC50. The protocol:
B. Solid Phase Receptor Assay (SPRA) for ανβ1 Function
Wells were washed 3 times with 150 μL TBS+ and then 150 μL of blocking buffer (TBS+ with 1% bovine serum albumin, Sigma A7906) was added. The plate was incubated for 1 hr at 37° C. and then washed 3× with TBS+ buffer. […] Compounds were diluted to 20 μM and 1 μL was added to each well of the plate according to a standard template with each sample repeated in triplicate. After incubation for two hours at room temperature, the plate was washed 3 with 150 μL of TBS+ buffer. To each well, 50 μL of biotinylated anti-αν antibody (R&D Systems, BAF1219) at 1 μg/mL in TBS+/0.1% BSA were added and the plate covered and incubated for 1 hr at room temperature. After washing the plate 3× with 150 μL of TBS+ buffer, 50 μL of streptavidin-conjugated horseradish peroxidase (R&D Systems, DY998) diluted in TBS+ blocking buffer were added to the wells and the plate incubated for 20 min at room temperature. The plate was washed 3× with TBS+ buffer followed by 50 μL of TMB substrate (Sigma, T4444) added to each well in the dark and the plate incubated for 25 min at room temperature. 25 μL of 1.0 M phosphoric acid was added as a stop solution and the plates were read at 450 nm using a Spectramax plate reader.

Assay [2] concerns the target T2, Recombinant human integrin ανβ3 (Homo sapiens, UniProt P05106+P06756).
T2 construct: purchased R&D Systems 3050-AV
Description: Solid Phase Receptor Assay (SPRA) for ανβ3 function. To be noted: plate-bound human vitronectin; read-out: αvβ3 SPRA IC50. The protocol: C. Solid Phase Receptor Assay (SPRA) for ανβ3 Function
Wells were washed 3 times with 150 μL TBS+ and then 150 μL of blocking buffer (TBS+ with 1% bovine serum albumin, Sigma A7906) was added. The plate was incubated for 1 hr at 37° C. and then washed 3× with TBS+ buffer. […] Compounds were diluted to 20 μM and then 1 μL was added to each well of the plate according to a standard template with each sample repeated in triplicate. After incubation for two hours at room temperature, the plate was washed 3× with 150 μL of TBS+ buffer. To each well, 50 μL of biotinylated anti-αν antibody (R&D Systems, BAF1219) at 0.5 μg/mL in TBS+/0.1% BSA were added and the plate covered and incubated for 1 hr at room temperature. After washing the plate 3× with 150 μL of TBS+ buffer, 50 μL of streptavidin-conjugated horseradish peroxidase (R&D Systems, DY998) diluted in TBS+ blocking buffer were added to the wells and the plate incubated for 20 min at room temperature. The plate was washed 3× with TBS+ buffer followed by 50 μL of TMB substrate (Sigma, T4444) added to each well in the dark and the plate was incubated for 25 min at room temperature. 25 μL of 1.0 M phosphoric acid was added as a stop solution and the plates were read at 450 nm using a Spectramax plate reader.

The target of assay [3] is T3, Recombinant human integrin ανβ8 (Homo sapiens, UniProt P06756+P26012).
T3 construct: purchased R&D Systems 4135-AV
The experiment in a line: Solid Phase Receptor Assay (SPRA) for ανβ8 function. To be noted: plate-bound human LAP; read-out: αvβ8 SPRA IC50. The protocol:
F. Solid Phase Receptor Assay (SPRA) for ανβ8 Function
Wells were washed 3 times with 150 μL TBS+ and then 150 μL of blocking buffer (TBS+ with 1% bovine serum albumin, Sigma A7906) was added. The plate was incubated for 1 hr at 37° C. and then washed 3× with TBS+. […] Compounds were diluted to 20 μM and 1 μL was added to each well of the plate according to a standard template with each sample repeated in triplicate. After incubation for two hours at room temperature, the plate was washed 3× with 150 μL of TBS+. To each well, 50 μL of biotinylated anti-αν antibody (R&D Systems, BAF1219) at 1 μg/mL in TBS+/0.1% BSA were added and the plate was covered and incubated for 1 hr at room temperature. After washing the plate 3× with 150 μL. of TBS+ buffer, 50 μL of streptavidin-conjugated horseradish peroxidase (R&D Systems, DY998) diluted in TBS+ blocking buffer were added to the wells and the plate incubated for 20 min at room temperature. The plate was washed 3× with TBS+ followed by 50 μL of TMB substrate (Sigma T4444) added to each well in the dark and the plate incubated for 10 min at room temperature. 25 μL of 1.0 M phosphoric acid was added as a stop solution and the plates were read at 450 nm using a Spectramax plate reader.

In assay [4] the target is T4, Recombinant human integrin α5β1 (Homo sapiens, UniProt P05556+P08648).
T4 construct: purchased R&D Systems 3230-A5
Description: Solid Phase Receptor Assay (SPRA) for α5β1 function. Conditions: plate-bound human fibronectin. The protocol:
A. Solid Phase Receptor Assay (SPRA) for α5β1 Function
Wells were washed 3 times with 150 μL TBS+ and then 150 μL of blocking buffer (TBS+ with 1% bovine serum albumin, Sigma A7906) was added. The plate was incubated for 1 hr at 37° C. and then washed 3× with TBS+ buffer. […] Compounds were diluted to 20 μM and then 1 μL was added to each well of the plate according to a standard template with each sample repeated in triplicate. After incubation for two hours at room temperature, the plate was washed 3× with 150 μL of TBS+ buffer. To each well, 50 μL of biotinylated anti-α5 antibody (R&D Systems, BAF1864) at 0.5 μg/mL in TBS+/0.1% BSA were added and the plate covered and incubated for 1 hr at room temperature. After washing the plate 3× with 150 μL of TBS+ buffer, 50 μL of streptavidin-conjugated horseradish peroxidase (R&D Systems, DY998) diluted in TBS+ blocking buffer were added to the wells and the plate incubated for 20 min at room temperature. The plate was washed 3× with TBS+ buffer followed by 50 μL of room temperature TMB substrate (Sigma, T4444) added to each well in the dark and the plate incubated for 25 min at room temperature. 25 μL of 1.0 M phosphoric acid was added as a stop solution and the plates were read at 450 nm using a Spectramax plate reader.

Where a name gives a salt, the structure may show the parent alone.

T4 sequence (P08648 42-995 limits assumed): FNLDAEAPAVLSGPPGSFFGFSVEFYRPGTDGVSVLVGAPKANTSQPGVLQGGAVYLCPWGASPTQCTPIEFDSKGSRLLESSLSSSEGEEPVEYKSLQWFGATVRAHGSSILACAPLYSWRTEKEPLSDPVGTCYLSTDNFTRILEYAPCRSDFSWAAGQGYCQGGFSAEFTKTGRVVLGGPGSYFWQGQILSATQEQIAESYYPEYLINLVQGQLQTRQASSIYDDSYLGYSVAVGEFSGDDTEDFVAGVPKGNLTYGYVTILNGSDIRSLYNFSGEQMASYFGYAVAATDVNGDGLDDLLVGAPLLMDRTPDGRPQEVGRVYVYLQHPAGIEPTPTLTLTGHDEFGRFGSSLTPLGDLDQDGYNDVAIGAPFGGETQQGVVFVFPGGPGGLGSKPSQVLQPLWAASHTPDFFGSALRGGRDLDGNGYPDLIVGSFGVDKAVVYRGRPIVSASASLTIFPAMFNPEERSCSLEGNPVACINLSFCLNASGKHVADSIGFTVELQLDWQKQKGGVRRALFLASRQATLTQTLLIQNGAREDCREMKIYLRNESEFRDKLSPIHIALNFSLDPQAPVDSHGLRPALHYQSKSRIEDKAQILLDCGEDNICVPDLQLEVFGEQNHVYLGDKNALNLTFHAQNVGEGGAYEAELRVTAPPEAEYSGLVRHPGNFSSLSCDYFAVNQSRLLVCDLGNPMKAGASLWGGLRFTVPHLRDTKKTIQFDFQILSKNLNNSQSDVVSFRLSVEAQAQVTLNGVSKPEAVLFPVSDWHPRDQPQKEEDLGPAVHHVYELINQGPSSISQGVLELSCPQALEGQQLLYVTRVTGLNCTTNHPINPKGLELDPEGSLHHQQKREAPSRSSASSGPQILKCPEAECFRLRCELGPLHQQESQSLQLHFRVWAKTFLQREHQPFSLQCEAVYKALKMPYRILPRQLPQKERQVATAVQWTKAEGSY
T4 sequence (P05556 21-728 limits assumed): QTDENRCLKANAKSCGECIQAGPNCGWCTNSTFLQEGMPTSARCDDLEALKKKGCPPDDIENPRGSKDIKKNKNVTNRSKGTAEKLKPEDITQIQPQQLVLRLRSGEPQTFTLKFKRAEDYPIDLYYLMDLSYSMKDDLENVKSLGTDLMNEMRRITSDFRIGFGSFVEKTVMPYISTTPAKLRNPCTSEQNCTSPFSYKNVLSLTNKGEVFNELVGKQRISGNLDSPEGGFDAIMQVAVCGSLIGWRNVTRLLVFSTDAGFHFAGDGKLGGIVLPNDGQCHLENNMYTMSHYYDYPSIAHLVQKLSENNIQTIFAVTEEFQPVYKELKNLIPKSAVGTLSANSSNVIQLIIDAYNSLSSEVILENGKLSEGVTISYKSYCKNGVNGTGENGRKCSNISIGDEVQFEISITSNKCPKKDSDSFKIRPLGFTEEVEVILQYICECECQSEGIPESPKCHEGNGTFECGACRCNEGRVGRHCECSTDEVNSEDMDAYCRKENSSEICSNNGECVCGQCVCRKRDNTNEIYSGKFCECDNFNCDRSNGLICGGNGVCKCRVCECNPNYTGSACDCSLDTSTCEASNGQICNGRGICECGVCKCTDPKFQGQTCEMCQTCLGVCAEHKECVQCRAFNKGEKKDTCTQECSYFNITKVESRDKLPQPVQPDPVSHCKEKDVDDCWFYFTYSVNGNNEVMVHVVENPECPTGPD
T2 sequence (P06756 31-992 limits assumed): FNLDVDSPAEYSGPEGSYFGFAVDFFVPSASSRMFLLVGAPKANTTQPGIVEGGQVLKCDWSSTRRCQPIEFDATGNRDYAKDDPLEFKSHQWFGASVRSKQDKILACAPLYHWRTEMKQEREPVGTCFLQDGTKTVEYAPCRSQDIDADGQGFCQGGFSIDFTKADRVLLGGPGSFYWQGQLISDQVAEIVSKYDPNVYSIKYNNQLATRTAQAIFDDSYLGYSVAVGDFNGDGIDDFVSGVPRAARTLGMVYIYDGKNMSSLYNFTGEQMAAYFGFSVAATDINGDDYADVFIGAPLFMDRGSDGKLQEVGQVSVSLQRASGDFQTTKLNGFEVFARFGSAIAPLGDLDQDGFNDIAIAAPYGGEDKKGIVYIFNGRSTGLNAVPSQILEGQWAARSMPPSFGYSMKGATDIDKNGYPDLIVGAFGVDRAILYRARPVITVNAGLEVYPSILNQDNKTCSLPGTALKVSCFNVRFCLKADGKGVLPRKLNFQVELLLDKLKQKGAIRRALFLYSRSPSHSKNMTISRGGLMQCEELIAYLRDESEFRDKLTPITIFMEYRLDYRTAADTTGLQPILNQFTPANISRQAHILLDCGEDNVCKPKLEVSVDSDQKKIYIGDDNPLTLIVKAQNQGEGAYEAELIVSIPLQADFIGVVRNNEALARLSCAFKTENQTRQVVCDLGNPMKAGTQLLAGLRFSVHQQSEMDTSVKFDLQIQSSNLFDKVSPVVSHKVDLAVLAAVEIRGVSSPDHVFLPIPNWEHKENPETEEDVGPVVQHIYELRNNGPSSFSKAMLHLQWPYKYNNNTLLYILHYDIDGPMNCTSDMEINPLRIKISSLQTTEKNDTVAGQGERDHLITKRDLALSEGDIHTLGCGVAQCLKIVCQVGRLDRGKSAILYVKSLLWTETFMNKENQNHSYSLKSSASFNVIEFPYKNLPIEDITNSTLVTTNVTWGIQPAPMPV
T2 sequence (P05106 27-718 limits assumed): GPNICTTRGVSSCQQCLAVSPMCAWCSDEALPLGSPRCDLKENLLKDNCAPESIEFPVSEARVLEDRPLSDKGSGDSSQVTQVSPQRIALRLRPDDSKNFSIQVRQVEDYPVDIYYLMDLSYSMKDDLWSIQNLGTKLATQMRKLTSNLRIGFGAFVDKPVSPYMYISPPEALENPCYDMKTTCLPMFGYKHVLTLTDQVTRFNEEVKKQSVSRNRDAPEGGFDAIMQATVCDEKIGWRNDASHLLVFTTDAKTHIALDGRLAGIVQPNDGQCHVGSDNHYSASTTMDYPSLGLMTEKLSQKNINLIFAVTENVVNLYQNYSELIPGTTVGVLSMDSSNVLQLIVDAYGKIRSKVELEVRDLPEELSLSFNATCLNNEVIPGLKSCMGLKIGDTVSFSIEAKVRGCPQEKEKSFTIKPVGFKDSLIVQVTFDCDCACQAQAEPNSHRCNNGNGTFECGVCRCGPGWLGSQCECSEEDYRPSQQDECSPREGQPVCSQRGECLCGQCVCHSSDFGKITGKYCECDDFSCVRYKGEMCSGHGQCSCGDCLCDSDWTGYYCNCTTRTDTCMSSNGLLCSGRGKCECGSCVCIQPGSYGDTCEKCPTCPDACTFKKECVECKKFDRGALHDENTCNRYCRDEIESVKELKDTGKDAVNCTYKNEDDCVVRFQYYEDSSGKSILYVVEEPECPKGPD
T3 sequence (P06756 31-992 limits assumed): as the sequence (P06756 31-992 limits assumed) above
T3 sequence (P26012 43-684 limits assumed): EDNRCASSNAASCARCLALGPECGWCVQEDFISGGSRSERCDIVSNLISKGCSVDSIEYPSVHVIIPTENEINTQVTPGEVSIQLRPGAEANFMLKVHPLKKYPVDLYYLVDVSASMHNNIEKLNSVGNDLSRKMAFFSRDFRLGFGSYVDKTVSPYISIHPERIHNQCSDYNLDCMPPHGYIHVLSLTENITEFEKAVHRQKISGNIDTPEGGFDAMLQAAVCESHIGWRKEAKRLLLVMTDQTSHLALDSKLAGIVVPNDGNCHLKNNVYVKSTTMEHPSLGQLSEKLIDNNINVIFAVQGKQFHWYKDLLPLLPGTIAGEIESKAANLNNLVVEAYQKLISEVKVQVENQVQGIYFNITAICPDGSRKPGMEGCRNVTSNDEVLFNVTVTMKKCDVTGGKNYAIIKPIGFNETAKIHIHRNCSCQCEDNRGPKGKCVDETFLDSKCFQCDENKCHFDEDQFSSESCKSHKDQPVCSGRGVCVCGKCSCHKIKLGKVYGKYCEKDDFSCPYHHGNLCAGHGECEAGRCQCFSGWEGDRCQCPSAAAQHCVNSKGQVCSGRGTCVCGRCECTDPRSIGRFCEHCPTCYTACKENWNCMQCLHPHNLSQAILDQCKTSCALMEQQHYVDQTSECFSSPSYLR
T1 sequence (P06756 31-992 limits assumed): as the sequence (P06756 31-992 limits assumed) above
T1 sequence (P05556 21-728 limits assumed): as the sequence (P05556 21-728 limits assumed) above

Regarding `Cn1nc(CC(CC(=O)O)c2ccc3c(c2)OCCO3)cc1OCCc1ccc2c(n1)NCCC2` (centres unmarked) [Example 1, 3-(2,3-dihydrobenzo[b][1,4]dioxin-6-yl)-4-(1-methyl-5-(2-(5,6,7,8-tetrahydro-1,8-naphthyridin-2-yl)ethoxy)-1H-pyrazol-3-yl)butanoic Acid], the 50% inhibitory concentration (IC50) in assay [1] amounted to 6 nM; in assay [2], 5 nM; in assay [3], 52 nM; in assay [4] it was 229 nM.
The matching figures for `Cn1nc(CC(CC(=O)O)c2cc(F)cc(Cl)c2)cc1OCCc1ccc2c(n1)NCCC2` (centres unmarked) [Example 2, 3-(3-chloro-5-fluorophenyl)-4-(1-methyl-5-(2-(5,6,7,8-tetrahydro-1,8-naphthyridin-2-yl)ethoxy)-1H-pyrazol-3-yl)butanoic Acid]: 5 nM, 4 nM, 32 nM and 192 nM.
The matching figures for `COc1ccc(C(CC(=O)O)Cc2cc(OCCc3ccc4c(n3)NCCC4)n(C)n2)cc1F` (centres unmarked) [Example 3, 3-(3-fluoro-4-methoxyphenyl)-4-(1-methyl-5-(2-(5,6,7,8-tetrahydro-1,8-naphthyridin-2-yl)-ethoxy)-1H-pyrazol-3-yl)butanoic Acid]: 5 nM, 3 nM, 114 nM and 114 nM.
Take `Cn1nc(CC(CC(=O)O)c2ccc(Br)c(F)c2)cc1OCCc1ccc2c(n1)NCCC2` (centres unmarked) [Example 4, 3-(4-bromo-3-fluorophenyl)-4-(1-methyl-5-(2-(5,6,7,8-tetrahydro-1,8-naphthyridin-2-yl)ethoxy)-1H-pyrazol-3-yl)butanoic Acid]: the 50% inhibitory concentration (IC50) in assay [1] amounted to 5 nM; in assay [2], 3 nM; in assay [3], 79 nM; in assay [4], 343 nM.
Taken in the same sequence, the figures for `Cn1nc(CC(CC(=O)O)c2ccc(F)c(Br)c2)cc1OCCc1ccc2c(n1)NCCC2` (centres unmarked) [Example 5, 3-(3-bromo-4-fluorophenyl)-4-(1-methyl-5-(2-(5,6,7,8-tetrahydro-1,8-naphthyridin-2-yl)ethoxy)-1H-pyrazol-3-yl)butanoic Acid] were 11 nM, 6 nM, 16 nM and 140 nM.
Consider `Cn1nc(CC(CC(=O)O)c2cccc(Br)c2)cc1OCCc1ccc2c(n1)NCCC2` (centres unmarked) [Example 6, 3-(3-bromophenyl)-4-(1-methyl-5-(2-(5,6,7,8-tetrahydro-1,8-naphthyridin-2-yl)ethoxy)-1H-pyrazol-3-yl)butanoic Acid], for which the IC50 in assay [1] was 10 nM; in assay [2] it was 5 nM; in assay [3], 19 nM; in assay [4], 158 nM.
Regarding `Cn1nc(CC(CC(=O)O)c2ccc(F)c(C#N)c2)cc1OCCc1ccc2c(n1)NCCC2` (centres unmarked) [Example 7, 3-(3-cyano-4-fluorophenyl)-4-(1-methyl-5-(2-(5,6,7,8-tetrahydro-1,8-naphthyridin-2-yl)ethoxy)-1H-pyrazol-3-yl)butanoic Acid], the concentration for half-maximal inhibition (IC50) in assay [1] was 7 nM; in assay [2] it was 7 nM; in assay [3] it was 23 nM; in assay [4] it was 224 nM.
Turning to `Cn1nc(CC(CC(=O)O)c2ccc(C#N)c(F)c2)cc1OCCc1ccc2c(n1)NCCC2` (centres unmarked) [Example 8], the half-maximal inhibitory concentration (IC50) in assay [1] came out at 12 nM; in assay [2] it was 6 nM; in assay [3], 48 nM; in assay [4], 166 nM.
With `Cn1nc(CC(CC(=O)O)c2cccc(C#N)c2)cc1OCCc1ccc2c(n1)NCCC2` (centres unmarked) [Example 9, 3-(3-cyanophenyl)-4-(1-methyl-5-(2-(5,6,7,8-tetrahydro-1,8-naphthyridin-2-yl)ethoxy)-1H-pyrazol-3-yl)butanoic Acid], the concentration for half-maximal inhibition (IC50) amounted to 9 nM in assay [1], 6 nM in assay [2], 62 nM in assay [3] and 110 nM in assay [4].
As for `Cn1nc(CC(CC(=O)O)c2cc(Br)cc(C(F)(F)F)c2)cc1OCCc1ccc2c(n1)NCCC2` (centres unmarked) [Example 10, 3-(3-bromo-5-(trifluoromethyl)phenyl)-4-(1-methyl-5-(2-(5,6,7,8-tetrahydro-1,8-naphthyridin-2-yl)ethoxy)-1H-pyrazol-3-yl)butanoic Acid], the half-maximal inhibitory concentration (IC50) in assay [1] was 17 nM; in assay [2], 3.6 nM; in assay [3], 12 nM; in assay [4] it was 120 nM.
On to `Cn1nc(CC(CC(=O)O)c2cc(Br)cc(OC(F)(F)F)c2)cc1OCCc1ccc2c(n1)NCCC2` (centres unmarked) [Example 11, 3-(3-bromo-5-(trifluoromethoxy)phenyl)-4-(1-methyl-5-(2-(5,6,7,8-tetrahydro-1,8-naphthyridin-2-yl)ethoxy)-1H-pyrazol-3-yl)butanoic Acid], for which the half-maximal inhibitory concentration (IC50) was determined as 11 nM in assay [1], 6 nM in assay [2], 42 nM in assay [3] and 150 nM in assay [4].
Taken in the same sequence, the figures for `COc1ccc(C(F)(F)F)cc1C(CC(=O)O)Cc1cc(OCCc2ccc3c(n2)NCCC3)n(C)n1` (centres unmarked) [Example 13, 3-(2-methoxy-5-(trifluoromethyl)phenyl)-4-(1-methyl-5-(2-(5,6,7,8-tetrahydro-1,8-naphthyridin-2-yl)ethoxy)-1H-pyrazol-3-yl)butanoic Acid Trifluoroacetate] were 5.8 nM, 11 nM, 26 nM and 59 nM.
As for `COc1ccc(Br)cc1C(CC(=O)O)Cc1cc(OCCc2ccc3c(n2)NCCC3)n(C)n1` (centres unmarked) [Example 14, 3-(5-bromo-2-methoxyphenyl)-4-(1-methyl-5-(2-(5,6,7,8-tetrahydro-1,8-naphthyridin-2-yl)ethoxy)-1H-pyrazol-3-yl)butanoic acid trifluoroacetate], the IC50 in assay [1] is 5 nM; in assay [2], 6.7 nM; in assay [3], 12 nM; in assay [4] it was 44 nM.
The matching figures for `COc1ccc([C@H](CC(=O)O)Cc2cc(OCCc3ccc4c(n3)NCCC4)n(C)n2)cc1F` [Example 15, (3S)-3-(3-fluoro-4-methoxyphenyl)-4-(1-methyl-5-(2-(5,6,7,8-tetrahydro-1,8-naphthyridin-2-yl)ethoxy)-1H-pyrazol-3-yl)butanoic Acid]: 3.8 nM, 2.6 nM, 90 nM and 85 nM.
